Results from PubChem BioAssay AID248 (DTP/NCI, 2004).
Inconclusive results and toxic doses are left out. Rule as the data show it: active = T/C of 150% or more; inactive = T/C below 125%.

Tested on: L1210 leukemia ip in BDF1 mice, survival T/C
Experiment: NCI In Vivo Anticancer Drug Screen. Data for tumor model L1210 Leukemia (intraperitoneal) in B6D2F1 (BDF1) mice
Conditions: endpoint: mean survival time, higher = longer survival
Summary of the method: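 Tumor cells were implanted, animals were treated, and survival was followed. The result divides the treated measurement by the vehicle-control measurement.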

[1] = dose: 25.0 mg/kg/injection, schedule: Q01DX009 (ip), vehicle: saline
[2] = dose: 50.0 mg/kg/injection, schedule: Q01DX009 (ip), vehicle: saline
[3] = dose: 100.0 mg/kg/injection, schedule: Q01DX001 (ip), vehicle: saline
[4] = dose: 100.0 mg/kg/injection, schedule: Q01DX009 (ip), vehicle: saline
[5] = dose: 100.0 mg/kg/injection, schedule: Q04DX003 (ip), vehicle: saline
[6] = dose: 100.0 mg/kg/injection, schedule: Q01DX001 (ip), vehicle: Klucel (hydroxypropylcellulose) (HPC)
[7] = dose: 200.0 mg/kg/injection, schedule: Q01DX001 (ip), vehicle: Klucel (hydroxypropylcellulose) (HPC)
[8] = dose: 100.0 mg/kg/injection, schedule: Q01DX009 (ip), vehicle: Klucel (hydroxypropylcellulose) (HPC)
[9] = dose: 100.0 mg/kg/injection, schedule: Q04DX003 (ip), vehicle: Klucel (hydroxypropylcellulose) (HPC)
[10] = dose: 200.0 mg/kg/injection, schedule: Q01DX009 (ip), vehicle: Klucel (hydroxypropylcellulose) (HPC)
[11] = dose: 200.0 mg/kg/injection, schedule: Q04DX003 (ip), vehicle: Klucel (hydroxypropylcellulose) (HPC)
[12] = dose: 400.0 mg/kg/injection, schedule: Q01DX009 (ip), vehicle: Klucel (hydroxypropylcellulose) (HPC)
[13] = dose: 400.0 mg/kg/injection, schedule: Q04DX003 (ip), vehicle: Klucel (hydroxypropylcellulose) (HPC)
[14] = dose: 50.0 mg/kg/injection, schedule: Q01DX001 (ip), vehicle: saline
[15] = dose: 200.0 mg/kg/injection, schedule: Q01DX001 (ip), vehicle: saline
[16] = dose: 400.0 mg/kg/injection, schedule: Q01DX001 (ip), vehicle: saline
[17] = dose: 100.0 mg/kg/injection, schedule: Q04DX003 (ip), vehicle: saline with Tween-80
[18] = dose: 200.0 mg/kg/injection, schedule: Q04DX003 (ip), vehicle: saline
[19] = dose: 400.0 mg/kg/injection, schedule: Q04DX003 (ip), vehicle: saline
[20] = dose: 75.0 mg/kg/injection, schedule: Q01DX001 (ip), vehicle: saline
[21] = dose: 200.0 mg/kg/injection, schedule: Q04DX003 (ip), vehicle: saline with Tween-80
[22] = dose: 400.0 mg/kg/injection, schedule: Q04DX003 (ip), vehicle: saline with Tween-80

Measured: T/C

C/C(=N\[N+](C)(C)C)c1cccc(C)n1
inactive: [1] 97 % of control | dose: 25.0 mg/kg/injection, schedule: Q04DX003 (ip), vehicle: saline 107 % of control | [2] 105 % of control | dose: 50.0 mg/kg/injection, schedule: Q04DX003 (ip), vehicle: saline 102 % of control | [3] 103 % of control | [4] 100 % of control | [5] 100 % of control

NC(=O)C(NC(=O)c1ccccc1)Sc1ccccc1 (centres undefined)
inactive: dose: 50.0 mg/kg/injection, schedule: Q01DX001 (ip), vehicle: Klucel (hydroxypropylcellulose) (HPC) 100 % of control | [6] 100 % of control | [7] 96 % of control

CCOC(=O)c1scnc1C
inactive: [8] 89 % of control | [9] 95 % of control | [10] 95 % of control | [11] 95 % of control | [12] 92 % of control | [13] 95 % of control

C=C1C(=O)N(C)C(C(=O)OC)CC1C(CC)C(=O)OC (centres undefined)
inactive: dose: 25.0 mg/kg/injection, schedule: Q01DX001 (ip), vehicle: saline 104 % of control | [14] 114 % of control | [3] 95 % of control | [15] 108 % of control

N#CC(c1cnc2ccccc2n1)c1cccc2ccccc12 (centres undefined)
inactive: [3] 94 % of control | [15] 92 % of control | [16] 97 % of control

O=C1OCCN1NCc1ccc([N+](=O)[O-])o1
inactive: [3] 92 % of control | [15] 103 % of control | [16] 101 % of control

ClC1=C(Cl)C2(Cl)C(C1Cl)C1(Cl)C(Cl)=C(Cl)C2(Cl)C1Cl (centres undefined)
inactive: [8] 97 % of control | [9] 102 % of control | [10] 97 % of control | [11] 104 % of control | [12] 97 % of control | [13] 93 % of control

O=C(Nc1ccccc1Cl)Oc1ccc(-c2ccccc2)cc1Br
inactive: [8] 102 % of control | [9] 94 % of control | [10] 96 % of control | [11] 96 % of control | [12] 104 % of control | [13] 102 % of control

COc1ccc(NNP(=O)(CCl)N(CCCl)CCCl)cc1 (centres undefined)
inactive: [6] 104 % of control | [7] 108 % of control | dose: 400.0 mg/kg/injection, schedule: Q01DX001 (ip), vehicle: Klucel (hydroxypropylcellulose) (HPC) 108 % of control

O=C(NNC(=O)Nc1ccc(C2=NCCN2)cc1)Nc1ccc(C2=NCCN2)cc1
inactive: dose: 8.0 mg/kg/injection, schedule: Q01DX Z (ip), vehicle: carboxymethylcellulose (CMC) 95 % of control | dose: 16.0 mg/kg/injection, schedule: Q01DX Z (ip), vehicle: carboxymethylcellulose (CMC) 98 % of control | dose: 32.0 mg/kg/injection, schedule: Q01DX Z (ip), vehicle: carboxymethylcellulose (CMC) 108 % of control
active: dose: 64.0 mg/kg/injection, schedule: Q01DX Z (ip), vehicle: carboxymethylcellulose (CMC) 165 % of control

O/N=C\C[n+]1cc2ccccc2cc1/C=N\O
inactive: [1] 97 % of control | [2] 97 % of control | [4] 104 % of control | [5] 98 % of control

O=C(Nc1ccccc1)C(Cl)(Cl)Cl
inactive: dose: 50.0 mg/kg/injection, schedule: Q01DX001 (ip), vehicle: other 104 % of control | dose: 100.0 mg/kg/injection, schedule: Q01DX001 (ip), vehicle: other 102 % of control | dose: 100.0 mg/kg/injection, schedule: Q04DX002 (ip), vehicle: Klucel (hydroxypropylcellulose) (HPC) 106 % of control | dose: 200.0 mg/kg/injection, schedule: Q01DX001 (ip), vehicle: other 102 % of control | dose: 200.0 mg/kg/injection, schedule: Q04DX002 (ip), vehicle: Klucel (hydroxypropylcellulose) (HPC) 92 % of control | dose: 400.0 mg/kg/injection, schedule: Q01DX001 (ip), vehicle: other 104 % of control | dose: 400.0 mg/kg/injection, schedule: Q04DX002 (ip), vehicle: Klucel (hydroxypropylcellulose) (HPC) 89 % of control

CC1=NC(C(=O)Cl)NN1c1ccccc1 (centres undefined)
inactive: [1] 101 % of control | dose: 25.0 mg/kg/injection, schedule: Q04DX003 (ip), vehicle: saline with Tween-80 96 % of control | [2] 97 % of control | dose: 50.0 mg/kg/injection, schedule: Q04DX003 (ip), vehicle: saline with Tween-80 101 % of control | [3] 93 % of control | [4] 95 % of control | [17] 98 % of control

O=C(CBr)CC(=O)Nc1ccccc1
inactive: dose: 25.0 mg/kg/injection, schedule: Q01DX009 (ip), vehicle: saline with Tween-80 97 % of control | dose: 50.0 mg/kg/injection, schedule: Q01DX009 (ip), vehicle: saline with Tween-80 91 % of control

CN(C)c1ccc(C(=O)O)cn1
inactive: dose: 100.0 mg/kg/injection, schedule: Q01DX009 (ip), vehicle: saline with Tween-80 96 % of control | [5] 100 % of control | dose: 200.0 mg/kg/injection, schedule: Q01DX009 (ip), vehicle: saline with Tween-80 105 % of control | [18] 100 % of control | dose: 400.0 mg/kg/injection, schedule: Q01DX009 (ip), vehicle: saline with Tween-80 102 % of control | [19] 100 % of control

Fc1ccc2[nH]c3cc4ccncc4cc3c2c1
inactive: dose: 50.0 mg/kg/injection, schedule: Q04DX002 (ip), vehicle: saline 101 % of control | dose: 100.0 mg/kg/injection, schedule: Q04DX002 (ip), vehicle: saline 94 % of control | dose: 200.0 mg/kg/injection, schedule: Q04DX002 (ip), vehicle: saline 94 % of control

COC(C)C1C([N+](C)(C)C)CS1(=O)=O (centres undefined)
inactive: [20] 97 % of control | dose: 150.0 mg/kg/injection, schedule: Q01DX001 (ip), vehicle: saline 94 % of control

O=[N+]([O-])c1cccc(/C=[N+](\[O-])c2ccccc2)c1
inactive: [14] 100 % of control | [3] 96 % of control | [15] 100 % of control | [16] 102 % of control

CCOCCOCCOC(C)Oc1ccc(C(=O)OCC)cc1 (centres undefined)
inactive: dose: 100.0 mg/kg/injection, schedule: Q04DX002 (ip), vehicle: saline with Tween-80 103 % of control | dose: 200.0 mg/kg/injection, schedule: Q04DX002 (ip), vehicle: saline with Tween-80 100 % of control | dose: 400.0 mg/kg/injection, schedule: Q04DX002 (ip), vehicle: saline with Tween-80 107 % of control

O=C(O)C1CCC(C(=O)O)NC1 (centres undefined)
inactive: [5] 106 % of control | [18] 102 % of control | [19] 101 % of control

CC(C)N=Cc1ccccc1O.CC(C)N=Cc1ccccc1O.[Ni]
inactive: dose: 6.25 mg/kg/injection, schedule: Q04DX003 (ip), vehicle: saline sonified 92 % of control | dose: 12.5 mg/kg/injection, schedule: Q04DX003 (ip), vehicle: saline sonified 101 % of control | dose: 25.0 mg/kg/injection, schedule: Q04DX003 (ip), vehicle: saline sonified 108 % of control | [5] 86 % of control

CC1(C[N+](=O)[O-])CCCC(=O)C1 (centres undefined)
inactive: [20] 98 % of control

Cc1cccc(Cl)c1NC(=S)Nc1cccc(C(F)(F)F)c1
inactive: [8] 102 % of control | [10] 102 % of control | [12] 96 % of control

CCCNC(c1ccc(C=NC(CC)(CO)CO)cc1)C(Cl)(Cl)Cl (centres undefined)
inactive: [3] 89 % of control | [15] 92 % of control | [16] 97 % of control

O=C(Nc1cc(C(F)(F)F)ccc1Cl)SCCSC(=O)Nc1cc(C(F)(F)F)ccc1Cl
inactive: [8] 87 % of control | [9] 102 % of control | [10] 103 % of control | [11] 100 % of control | [12] 93 % of control | [13] 97 % of control

O=C(c1ccccc1)c1cccc(C(Br)Br)c1
inactive: [17] 96 % of control | [21] 95 % of control | [22] 95 % of control

C(/C=C/C=C/Nc1ccccc1)=Nc1ccccc1
inactive: [17] 100 % of control | [21] 104 % of control | [22] 92 % of control
